According to paper PMC5522529, “Mechanisms of Paradoxical Activation of AMPK by the Kinase Inhibitors SU6656 and Sorafenib” (Cell Chemical Biology, 2017):

What was measured:
AMPK-γ1 complexes (WT) = biological target: T1, AMPK-γ1 complexes (WT) (Homo sapiens, UniProt P54619); test: Activation by LKB1 of FLAG-AMPK-γ1 (WT) complexes precipitated from HeLa cells; type: biochemical; settings: AMP 200 μM or SU6656 3 μM, 10 min
T1 construct: Plasmid encoding full-length human AMPK-γ1; expressed in transfected cells; host or cells: HeLa
Source text: (B) Effect of ATP concentration on kinase activity of α2-KD in the presence of increasing concentrations of SU6656. Results (mean, n = 2) were fitted to the equation Y= (Vmax × X)/(Km × (1 + I/Ki) + X), where Y is the activity, X is the ATP concentration, I is the concentration of SU6656, and Ki is the inhibitory constant for SU6656. […] (D and E) Effect of increasing concentrations of SU6656 on activity (D) and Thr172 phosphorylation (E) induced by LKB1 with unphosphorylated α2-KD (WT/AT mutant). Results in (D) are mean ± SEM (n = 3); and were fitted to same equation as Figure 4C. […] See also Figure S3. (F) Effect of AMP (2 mM) and SU6656 on inactivation of AMPK by PP2Cα in the presence of 5 mM ATP. […] (G) Effects of AMP or SU6656 on activation (top) and Thr172 phosphorylation (bottom) by LKB1 of AMPK-γ1 complexes expressed in HeLa cells. FLAG-tagged AMPK-γ1, either wild-type (WT) or R299G mutant (RG), was expressed in HeLa cells and AMPK complexes precipitated using anti-FLAG antibody. The complexes (which have low basal phosphorylation due to lack of LKB1 in HeLa cells) were incubated with or without a limiting amount of LKB1, AMP (200 μM) or SU6656 (3 μM) for 10 min and AMPK activity determined. […]

α2-KD A156T (AT) mutant = biological target: T2, α2-KD A156T (AT) mutant (Homo sapiens, UniProt P54646, A156T); test: Activation and phosphorylation of unphosphorylated α2-KD AT mutant by LKB1; type: biochemical
T2 construct: amplifying residues 1-310 with 5' BamH1 and 3' Xho1 sites; made in house; host or cells: bacteria
Source text: (B) Effect of ATP concentration on kinase activity of α2-KD in the presence of increasing concentrations of SU6656. Results (mean, n = 2) were fitted to the equation Y= (Vmax × X)/(Km × (1 + I/Ki) + X), where Y is the activity, X is the ATP concentration, I is the concentration of SU6656, and Ki is the inhibitory constant for SU6656. […] (D and E) Effect of increasing concentrations of SU6656 on activity (D) and Thr172 phosphorylation (E) induced by LKB1 with unphosphorylated α2-KD (WT/AT mutant). Results in (D) are mean ± SEM (n = 3); and were fitted to same equation as Figure 4C. […] See also Figure S3. (F) Effect of AMP (2 mM) and SU6656 on inactivation of AMPK by PP2Cα in the presence of 5 mM ATP. […] (G) Effects of AMP or SU6656 on activation (top) and Thr172 phosphorylation (bottom) by LKB1 of AMPK-γ1 complexes expressed in HeLa cells. FLAG-tagged AMPK-γ1, either wild-type (WT) or R299G mutant (RG), was expressed in HeLa cells and AMPK complexes precipitated using anti-FLAG antibody. The complexes (which have low basal phosphorylation due to lack of LKB1 in HeLa cells) were incubated with or without a limiting amount of LKB1, AMP (200 μM) or SU6656 (3 μM) for 10 min and AMPK activity determined.
We next used unphosphorylated α2-KD and tested the effect of SU6656 on its activation and phosphorylation by LKB1.

[1] = parameters: method as in Strumberg et al., 2007; settings: human clinical trials; ref Strumberg et al., 2007; cited from earlier work

T2 sequence (P54646 1-310 A156T): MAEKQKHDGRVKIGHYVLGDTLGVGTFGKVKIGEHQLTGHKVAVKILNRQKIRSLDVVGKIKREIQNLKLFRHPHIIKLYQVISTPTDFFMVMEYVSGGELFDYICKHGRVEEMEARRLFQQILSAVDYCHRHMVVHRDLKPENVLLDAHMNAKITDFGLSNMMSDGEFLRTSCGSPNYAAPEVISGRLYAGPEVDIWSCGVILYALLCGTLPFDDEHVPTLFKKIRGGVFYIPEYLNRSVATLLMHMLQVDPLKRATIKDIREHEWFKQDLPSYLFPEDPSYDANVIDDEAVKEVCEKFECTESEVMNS
T1 sequence (P54619 whole entry, one chain of several): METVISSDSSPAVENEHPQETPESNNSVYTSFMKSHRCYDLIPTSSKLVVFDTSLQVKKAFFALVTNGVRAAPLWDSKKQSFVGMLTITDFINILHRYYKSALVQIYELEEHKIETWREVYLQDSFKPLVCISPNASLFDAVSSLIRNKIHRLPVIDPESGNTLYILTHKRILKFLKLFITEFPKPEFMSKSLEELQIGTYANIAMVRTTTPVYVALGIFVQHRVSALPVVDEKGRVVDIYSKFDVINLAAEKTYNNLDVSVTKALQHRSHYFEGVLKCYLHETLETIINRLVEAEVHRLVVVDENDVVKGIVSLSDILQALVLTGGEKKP

Row | SMILES | activation and Thr172 phosphorylation by LKB1 (AMPK-γ1 complexes (WT)) | EC50 (α2-KD A156T (AT) mutant) [µM] | activation of α2-KD by LKB1 (α2-KD A156T (AT) mutant) [fold] | peak plasma sorafenib [1] [µM]
1 | CN(C)S(=O)(=O)c1ccc2c(c1)/C(=C/c1cc3c([nH]1)CCCC3)C(=O)N2 [SU6656] | promoted activation and increased Thr172 phosphorylation | 0.07 | 1.07 | 
2 | CNC(=O)c1cc(Oc2ccc(NC(=O)Nc3ccc(Cl)c(C(F)(F)F)c3)cc2)ccn1 [sorafenib] |  |  |  | 6 to 20
